Columns and labels:
MV4-11 = experiment: Antiproliferative activity against human MV4-11 cells incubated for 72 hrs by Cell Counting Kit-8 assay; type: functional, cell-based; conditions: MV4-11, 72 h
MOLM-13 [1] = experiment: Antiproliferative activity against human MOLM-13 cells incubated for 72 hrs by Cell Counting Kit-8 assay; type: functional, cell-based; conditions: MOLM-13, 72 h
[2] = target: T1, Receptor-type tyrosine-protein kinase FLT3 (Homo sapiens, UniProt P36888); experiment: Inhibition of FLT3 (unknown origin) incubated for 30 mins in presence of ATP by mobility shift assay
T1 sequence (P36888 whole entry): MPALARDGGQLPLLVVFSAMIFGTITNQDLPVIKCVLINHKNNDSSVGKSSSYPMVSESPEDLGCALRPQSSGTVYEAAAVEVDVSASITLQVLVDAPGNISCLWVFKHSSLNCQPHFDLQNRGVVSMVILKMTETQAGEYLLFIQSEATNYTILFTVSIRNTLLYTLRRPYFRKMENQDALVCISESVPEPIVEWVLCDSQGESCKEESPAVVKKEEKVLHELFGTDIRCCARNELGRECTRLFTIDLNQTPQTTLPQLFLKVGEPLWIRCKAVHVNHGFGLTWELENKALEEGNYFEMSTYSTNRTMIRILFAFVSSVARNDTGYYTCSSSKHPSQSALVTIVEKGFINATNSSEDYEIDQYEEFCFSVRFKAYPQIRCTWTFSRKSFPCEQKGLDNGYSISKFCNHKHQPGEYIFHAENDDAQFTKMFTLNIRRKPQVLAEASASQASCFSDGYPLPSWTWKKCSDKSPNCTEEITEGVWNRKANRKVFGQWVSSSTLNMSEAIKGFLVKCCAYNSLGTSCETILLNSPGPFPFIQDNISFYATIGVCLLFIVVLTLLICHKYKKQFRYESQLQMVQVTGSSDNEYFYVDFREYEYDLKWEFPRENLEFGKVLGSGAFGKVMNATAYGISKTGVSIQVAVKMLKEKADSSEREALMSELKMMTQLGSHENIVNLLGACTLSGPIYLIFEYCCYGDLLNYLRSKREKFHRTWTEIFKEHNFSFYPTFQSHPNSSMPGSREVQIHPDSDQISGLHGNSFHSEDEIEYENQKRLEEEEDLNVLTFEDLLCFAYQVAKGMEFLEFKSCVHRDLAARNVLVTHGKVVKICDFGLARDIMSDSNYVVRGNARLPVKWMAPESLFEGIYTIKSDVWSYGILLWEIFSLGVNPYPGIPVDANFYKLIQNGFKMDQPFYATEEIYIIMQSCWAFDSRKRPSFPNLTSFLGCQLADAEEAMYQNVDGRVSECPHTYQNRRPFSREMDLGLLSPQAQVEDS

MOLM-13 [3] = experiment: Antiproliferative activity against human sunitinib-resistant MOLM-13 cells at 1000 nM incubated for 72 hrs by CCK8 assay relative to control; type: functional
MOLM-13 [4] = experiment: Antiproliferative activity against human sunitinib-resistant MOLM-13 cells at 111 nM incubated for 72 hrs by CCK8 assay relative to control; type: functional
MOLM-13 [5] = experiment: Antiproliferative activity against human sunitinib-resistant MOLM-13 cells at 37 nM incubated for 72 hrs by CCK8 assay relative to control; type: functional
MOLM-13 [6] = experiment: Antiproliferative activity against human sunitinib-resistant MOLM-13 cells at 12 nM incubated for 72 hrs by CCK8 assay relative to control; type: functional
MOLM-13 [7] = experiment: Antiproliferative activity against human sunitinib-resistant MOLM-13 cells at 4 nM incubated for 72 hrs by CCK8 assay relative to control; type: functional
MOLM-13 [8] = experiment: Antiproliferative activity against human sunitinib-resistant MOLM-13 cells at 1 nM incubated for 72 hrs by CCK8 assay relative to control; type: functional
MOLM-13 [9] = experiment: Antiproliferative activity against human quizartinib-resistant MOLM-13 cells at 1000 nM incubated for 72 hrs by CCK8 assay relative to control; type: functional
MOLM-13 [10] = experiment: Antiproliferative activity against human quizartinib-resistant MOLM-13 cells at 333 nM incubated for 72 hrs by CCK8 assay relative to control; type: functional
MOLM-13 [11] = experiment: Antiproliferative activity against human quizartinib-resistant MOLM-13 cells at 111 nM incubated for 72 hrs by CCK8 assay relative to control; type: functional
MOLM-13 [12] = experiment: Antiproliferative activity against human quizartinib-resistant MOLM-13 cells at 37 nM incubated for 72 hrs by CCK8 assay relative to control; type: functional
MOLM-13 [13] = experiment: Antiproliferative activity against human quizartinib-resistant MOLM-13 cells at 12 nM incubated for 72 hrs by CCK8 assay relative to control; type: functional
MOLM-13 [14] = experiment: Antiproliferative activity against human quizartinib-resistant MOLM-13 cells at 4 nM incubated for 72 hrs by CCK8 assay relative to control; type: functional
MOLM-13 [15] = experiment: Antiproliferative activity against human quizartinib-resistant MOLM-13 cells at 1 nM incubated for 72 hrs by CCK8 assay relative to control; type: functional
MOLM-13 [16] = experiment: Antiproliferative activity against human sunitinib-resistant MOLM-13 cells at 333 nM incubated for 72 hrs by CCK8 assay relative to control; type: functional
[17] = Chemical stability of compound incubated for 90 days by HPLC analysis; type: physicochemical; conditions: time 90 day; read-out: Stabilty

Row | Compound | IC50 (MV4-11) [nM] | IC50 (MOLM-13 [1]) [nM] | IC50 [2] [nM] | further results
1 | Cc1c(NC(=O)C2CCCCN2)c[nH]c1/C=C1\C(=O)Nc2ccc(F)cc21 (stereo unspecified) | 54.4 | 59.2 | 2.4 | –
2 | CCN(CC)CCC(=O)Nc1c[nH]c(/C=C2\C(=O)Nc3ccc(F)cc32)c1C | 30.3 | 54.3 | 2 | –
3 | Cc1c(NC(=O)CCN(C)C)c[nH]c1/C=C1\C(=O)Nc2ccc(F)cc21 | 32.4 | 57 | 1.7 | –
4 | CC(C)(C)c1cc(NC(=O)Nc2ccc(-c3cn4c(n3)sc3cc(OCCN5CCOCC5)ccc34)cc2)no1 [QUIZARTINIB] | – | – | – | Activity (MOLM-13 [3]): 10.9%; Activity (MOLM-13 [4]): -1.5%; Activity (MOLM-13 [5]): 0.2%; Activity (MOLM-13 [6]): 2.8%; Activity (MOLM-13 [7]): -0.9%; Activity (MOLM-13 [8]): 1.4%; Activity (MOLM-13 [9]): 1.3%; Activity (MOLM-13 [10]): -4.1%; Activity (MOLM-13 [11]): -5.8%; Activity (MOLM-13 [12]): -0.8%; Activity (MOLM-13 [13]): 2.9%; Activity (MOLM-13 [14]): -0.4%; Activity (MOLM-13 [15]): 5.2%; Activity (MOLM-13 [16]): 5.7%
5 | Cc1c(NC(=O)CCN2CCN(C)CC2)c[nH]c1/C=C1\C(=O)Nc2ccc(F)cc21 | 41.3 | 47.5 | 3 | –
6 | Cc1c(NC(=O)CCN2CCOCC2)c[nH]c1/C=C1\C(=O)Nc2ccc(F)cc21 | 133 | 173 | – | –
7 | Cc1c(NC(=O)CCN2CCCCC2)c[nH]c1/C=C1\C(=O)Nc2ccc(F)cc21 | 44.2 | 64.2 | 1.3 | –
8 | CCNCCC(=O)Nc1c[nH]c(/C=C2\C(=O)Nc3ccc(F)cc32)c1C | 34.5 | 51.2 | 2.5 | –
9 | COc1ccc2c(c1)/C(=C/c1[nH]cc(NC(=O)CCN3CCCC3)c1C)C(=O)N2 | 28.9 | 55.7 | – | –
10 | Cc1[nH]c(/C=C2\C(=O)Nc3ccc(F)cc32)c(C)c1NC(=O)[C@@H]1CCCN1 | 40.9 | – | – | remaining at 2160 h [17]: 80.8%
11 | Cc1c(NC(=O)CCN2CCCC2)c[nH]c1/C=C1\C(=O)Nc2ccc(Br)cc21 | 58.6 | 71.5 | – | –
12 | CCN(CC)CC(=O)Nc1c[nH]c(/C=C2\C(=O)Nc3ccc(F)cc32)c1C | 81.7 | 176 | – | –
13 | Cc1c(NC(=O)CCNC2CCCC2)c[nH]c1/C=C1\C(=O)Nc2ccc(F)cc21 | 29.2 | 44.3 | 0.6 | –
14 | CCCNCCC(=O)Nc1c[nH]c(/C=C2\C(=O)Nc3ccc(F)cc32)c1C | 34.7 | 57.4 | 1.7 | –
15 | Cc1c(NC(=O)[C@H]2CCCN2)c[nH]c1/C=C1\C(=O)Nc2ccc(F)cc21 | 69.9 | 70.8 | – | –
16 | Cc1c(NC(=O)CNC2CCCC2)c[nH]c1/C=C1\C(=O)Nc2ccc(F)cc21 | 125 | 158 | – | –
17 | Cc1c(NC(=O)CC2CCCN2)c[nH]c1/C=C1\C(=O)Nc2ccc(F)cc21 (stereo unspecified) | 50 | 35.9 | 2.7 | –
18 | Cc1c(NC(=O)CCN2CCCC2)c[nH]c1/C=C1\C(=O)Nc2ccc(Cl)cc21 | 20.9 | 64.5 | – | –
19 | Cc1c(NC(=O)[C@@H]2CCCN2)c[nH]c1/C=C1\C(=O)Nc2ccc(F)cc21 | 37.2 | 35.9 | 2.5 | remaining at 2160 h [17]: 99.1%
20 | Cc1c(NC(=O)CN2CCN(C)CC2)c[nH]c1/C=C1\C(=O)Nc2ccc(F)cc21 | 51.8 | 48.4 | 2.7 | –
21 | Cc1c(NC(=O)CCNC(C)(C)C)c[nH]c1/C=C1\C(=O)Nc2ccc(F)cc21 | 44.8 | 58.2 | 1.8 | –
22 | Cc1c(NC(=O)CN2CCCCC2)c[nH]c1/C=C1\C(=O)Nc2ccc(F)cc21 | 252 | > 1000 | – | –
23 | Cc1c(NC(=O)C2CCNCC2)c[nH]c1/C=C1\C(=O)Nc2ccc(F)cc21 | 177 | 143 | – | –
24 | Cc1c(NC(=O)CN(C)C)c[nH]c1/C=C1\C(=O)Nc2ccc(F)cc21 | 78.6 | 36 | 2 | –
25 | Cc1c(NC(=O)CN2CCCC2)c[nH]c1/C=C1\C(=O)Nc2ccc(F)cc21 | 77 | 61.9 | 1.4 | –
26 | Cc1c(/C=C2\C(=O)Nc3ccc(F)cc32)[nH]c(Cl)c1NC(=O)[C@@H]1CCCN1 | 50.7 | – | – | remaining at 2160 h [17]: 95.4%
27 | Cc1c(/C=C2\C(=O)Nc3ccc(F)cc32)[nH]c(Br)c1NC(=O)[C@@H]1CCCN1 | 61.5 | – | – | remaining at 2160 h [17]: 96.6%

Source: ChEMBL document CHEMBL4823252 (J Med Chem, 2021)
